Laboratory results reported in patent publication EP0575454B1, “USE OF CUCURBITINE FOR THE PREPARATION OF A COSMETIC OR PHARMACEUTICAL, PARTICULARLY DERMATOLOGICAL, ANTIALLERGIC COMPOSITION AND METHOD INVOLVING APPLICATION THEREOF” (PARFUMS CHRISTIAN DIOR, priority 1991, dated 1992).

Key:
enzyme HDC = assay: RIA (radioimmunoassay) of the histamine produced by the HDC enzyme; assay type: biochemical; settings: for % I (Inhibition) à 5 min / histamine libérée / % I (Inhibition) à 10 min: histidine 16.10^-3 molaire, effector 2.10^-3 molaire; for % I (Inhibition) à 5 min / % I (Inhibition) à 10 min: pH 6,3, 2000 µM; for histamine libérée: phosphate buffer pH 6,3
From the text: On peut également mettre en évidence l'activité anti-histaminique de la cucurbitine par un dosage radioimmunologique (Radio Immuno Assay ou "RIA") de la manière suivante.
Ce dosage a lieu en dosant l'histamine directement produite sous l'action de l'enzyme HDC, par la méthode RIA, bien connue à l'homme de l'art, et notamment décrite dans la notice d'utilisation d'un kit de dosage dénommé HISTAMINE Radioimmunoassay kit (Cat. # 1302) commercialisé par la Société IMMUNOTECH (Marseille-France).
On dose au cours du temps La quantité d'histamine libérée (en nanomoles) pour une concentration de 16.10^-3 molaire d'histidine dans un tampon phosphate à pH 6,3, respectivement sans effecteur, avec la tritoqualine comme effecteur de comparaison et avec de la cucurbitine racémique de synthèse comme agent anti-histaminique selon l'invention. La tritoqualine et la cucurbitine sont utilisées à la concentration de 2.10^-3 molaire.
Les résultats obtenus exprimés en nanomoles […] libérée sont répertoriés au tableau III ci-après et font l'objet de la courbe de la figure 2 où l'on a indiqué en ordonnées le nombre de nanomoles d'histamine libérée et en abscisses le temps exprimé en minute. La courbe sans effecteur est tracée en trait continu, la courbe obtenue avec la tritoqualine est tracée en trait mixte et la courbe obtenue avec la cucurbitine est tracée en pointillés. TABLEAU III

[1] = test system: histidine décarboxylase (HDC); assay: Enzymatic test: colorimetric assay (MBTH/DMAB) of histidine decarboxylase inhibition, initial reaction rates (Michaelis curves); assay type: biochemical; settings: for vitesse initiale: racemic cucurbitine
From the text: Ce test est basé sur l'action inhibitrice de la cucurbitine sur l'enzyme histidine décarboxylase (HDC) qui transforme l'histidine en histamine, par rapport à celle de la tritoqualine, qui est un inhibiteur connu de l'HDC (voir Carpi C., Maggi G.C. Bull. Soc Ital. Sper. 1968, 44 (6 543-4), et qui est utilisée en thérapeutique comme hypohistaminémiant sous le non de Hypostamine®.
L'activité inhibitrice sur l'HDC peut être aisément réalisée par un dosage colorimétrique sur la base de la réaction chimique suivante :
MBTH = 3-méthyl-2-benzothiazolinone hydrazone DMAB = 3-(diméthylamino)benzoic acid
En pratique, on observe que la formation de la coloration bleue est proportionnelle à la concentration en histidine consommée. On a ainsi pu définir des vitesses initiales de réaction et établir des courbes dites de Mickaelis comme décrit dans Fundamentals of Enzymology, 2nd Ed. Oxford Univ. Press, 1989.
La vitesse initiale est exprimée en variation d'absorbance par minute.
Les résultats obtenus avec diverses concentrations initiales d'histidine, à savoir à 132 nmol, 265 nmol, et 530 nmol, respectivement sans effecteur, avec tritoqualine comme inhibiteur d'HDC connu, et avec la cucurbitine sous forme racémique comme inhibiteur selon l'invention sont répertoriés au tableau II ci-après et font l'objet de la courbe de Mickaelis, objet de la figure 1. Tableau II

| % I (Inhibition) à 5 min (enzyme HDC; 5 min) [%] | histamine libérée (enzyme HDC; 5 min) | % I (Inhibition) à 10 min (enzyme HDC; 10 min) [%] | histamine libérée (enzyme HDC; 10 min) | vitesse initiale ([1]; Histidine 132 nmol) | vitesse initiale ([1]; Histidine 265 nmol) | vitesse initiale ([1]; Histidine 530 nmol) | Structure (SMILES) | activité inhibitrice de la formation d'histamine (comparison in words) (enzyme HDC; compared with tritoqualine, after a few minutes) | inhibiteur d'HDC (comparison in words) ([1]; compared with tritoqualine, Table II and figure 1) |
| --- | --- | --- | --- | --- | --- | --- | --- | --- | --- |
| 49 | 16,48 nanomoles | 65 | 49,27 nanomoles | 0,021 variation d'absorbance par minute | 0,0374 variation d'absorbance par minute | 0,0604 variation d'absorbance par minute | CCOc1c(N)c2c(c(OCC)c1OCC)C(C1c3c(cc4c(c3OC)OCO4)CCN1C)OC2=O (stereo not shown) [Tritoqualine, tritoqualine, reference compound] |  |  |
| 55 | 14,85 nanomoles | 73 | 38,29 nanomoles | 0,013 variation d'absorbance par minute | 0,0242 variation d'absorbance par minute | 0,042 variation d'absorbance par minute | NC1(C(=O)O)CCNC1 (racemic) [Cucurbitine, acide 3-amine-3-pyrrolidinecarboxylique] | nettement plus puissante que la tritoqualine | beaucoup plus puissant que la tritoqualine |
